Measured values published in patent publication US9018258B2, “Substituted 1-benzylcycloalkylcarboxylic acids and the use thereof” (Bayer Intellectual Property GmbH, priority 2010, dated 2015).

Tests used:
sGC = target: T1, sGC (Rattus norvegicus, UniProt P20595); assay: Action at a recombinant guanylate cyclase reporter cell line (CHO reporter cell); assay type: cell-based; settings: CHO reporter cell in vitro
T1 construct: expressed in transfected cells; host or cells: CHO reporter cell
Method: The cellular action of the compounds according to the invention is determined at a recombinant guanylate cyclase reporter cell line, as described in F. Wunder et al., Anal. Biochem. 339, 104-112 (2005).

[1] = target: T2, soluble guanylate cyclase (sGC) (Rattus norvegicus, UniProt P20595); assay: Stimulation of sGC enzyme activity (PPi detection, luciferase); assay type: biochemical; settings: sGC enzyme in vitro; for EC50: read-out: EC50 (concentration at 50% of maximum efficacy), activating action at the sGC enzyme
T2 construct: made in house; host or cells: Sf9 insect cells (baculovirus)
Method: Soluble guanylate cyclase (sGC) converts on stimulation GTP into cGMP and pyrophosphate (PPi). PPi is detected with the aid of the assay described below. The signal produced in the assay increases as the reaction progresses and serves as a measure of the sGC enzyme activity under the given stimulation.
To carry out the assay, 29 μl of enzyme solution [0-10 nM soluble guanylate cyclase (prepared according to Honicka et al., J. Mol. Med. 77, 14-23 (1999)) in 50 mM TEA, 2 mM MgCl2, 0.1% BSA (fraction V), 0.005% Brij®, pH 7.5] are initially introduced into a microplate, and 1 μl of the substance to be tested (as a serially diluted solution in DMSO) is added. The mixture is incubated at room temperature for 10 min. Then 20 μl of detection mix [1.2 nM Firefly Luciferase (Photinus pyralis luciferase, Promega), 29 μM dehydroluciferin (prepared according to Bitler & McElroy, Arch. Biochem. Biophys. 72, 358 (1957)), 122 μM luciferin (Promega), 153 μM ATP (Sigma) and 0.4 mM DTT (Sigma) in 50 mM TEA, 2 mM MgCl2, 0.1% BSA (fraction V), 0.005% Brij®, pH 7.5] are added. The enzyme reaction is started by adding 20 μl of substrate solution [1.25 mM guanosine 5′-triphosphate (Sigma) in 50 mM TEA, 2 mM MgCl2, 0.1% BSA (fraction V), 0.005% Brij®, pH 7.5] and measured continuously in a luminometer. The extent of the stimulation by the substance to be tested can be determined relative to the signal of the unstimulated reaction.
The activation of haem-free guanylate cyclase is examined by addition of 25 μM of 1H-1,2,4-oxadiazolo[4,3-a]quinoxalin-1-one (ODQ) to the enzyme solution and subsequent incubation for 30 minutes and compared to the stimulation of the native enzyme.

GAL4-PPARα = target: T3, GAL4-PPARα (Homo sapiens, UniProt Q07869); assay: Cellular PPAR transactivation assay, GAL4-PPARα chimera in CHO-K1 cells; assay type: cell-based; settings: for Emax: CHO-K1, maximum effect relative to reference compound (Example 73 of EP 1 452 521-A1 = 100%), read-out: PPARα efficacy; for EC50: CHO-K1 cells, luciferase reporter, 6 h stimulation
T3 construct: expressed in transfected cells
T3 sequence (Q07869 167-468): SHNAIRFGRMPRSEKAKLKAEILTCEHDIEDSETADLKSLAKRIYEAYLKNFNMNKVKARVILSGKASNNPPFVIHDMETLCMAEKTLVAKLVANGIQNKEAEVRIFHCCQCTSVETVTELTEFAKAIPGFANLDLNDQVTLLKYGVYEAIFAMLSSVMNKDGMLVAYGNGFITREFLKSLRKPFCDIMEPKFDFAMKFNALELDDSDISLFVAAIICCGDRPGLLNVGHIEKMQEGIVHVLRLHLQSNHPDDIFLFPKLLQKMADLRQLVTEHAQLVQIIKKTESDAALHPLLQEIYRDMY
Excerpt: (§1) A cellular assay is used to test for potentially activating properties of the compounds according to the invention with respect to the three human isoforms of the peroxisome proliferator-activated receptors (PPARα, PPARγ and PPARδ).
(§2) Since mammalian cells contain different endogenous nuclear receptors which may complicate an unambiguous interpretation of the results, an established chimera system is used in which the respective ligand binding domain of the human PPAR isoforms is fused to the DNA binding domain of the yeast transcription factor GAL4. The resulting GAL4-PPARα, γ and δ chimeras are co-transfected and stably expressed in CHO cells having a reporter construct.
(§3) The GAL4-PPAR expression constructs contain the ligand binding domain of PPARα (amino acids 167-468), PPARγ (amino acids 203-506) and PPARδ (amino acids 138-442) which are PCR-amplified and cloned into the vector pcDNA3.1. The respective expression vectors already contain the GAL4 DNA binding domain (amino acids 1-147) of the vector pFC2-dbd (Stratagene). The reporter construct, which contains five copies of the GAL4 binding site upstream of a thymidine kinase promoter, expresses firefly luciferase (Photinus pyralis) following activation and binding of GAL4-PPARα, γ or δ.
(§4) The day before the test, CHO-K1 cells (chinese hamster ovary; ATCC CCL-61) each stably expressing one of the above-described GAL4-PPAR chimeras and the luciferase reporter gene construct are sown in medium [Optimem (GIBCO) with 2% activated carbon-purified foetal calf serum (Hyclone), 1.35 mM sodium pyruvate (GIBCO) and 0.2% sodium bicarbonate (GIBCO)] in a density of 1×10^3 cells in 96-well microtitre plates (Greiner) and kept in a cell incubator (96% atmospheric humidity, 5% v/v CO2, 37° C.). On the test day, the substances to be tested are taken up in the medium mentioned above, but without addition of calf serum, and added in various concentrations to the cells. After a stimulation period of 6 h, the luciferase activity is measured using a video camera. The relative light units measured give, as a function of the substance concentration, a sigmoidal stimulation curve. The EC50 values are calculated using the computer programme GraphPad PRISM (Version 3.02). The maximum effect of a test substance in the respective PPAR assay is determined as efficacy in percent in comparison to an appropriate reference compound whose maximum effect is defined as 100%.
(§5) The reference compound selected here was the compound 2-(3-{[(2-chloro-4-propoxybenzoyl)-amino]methyl}-4-ethoxybenzyl)tetrahydrofuran-2-carboxylic acid [Example 73 of EP 1 452 521-A1] which is described in the prior art as a potent pan-PPAR agonist.

GAL4-PPARγ = target: T4, GAL4-PPARγ (Homo sapiens, UniProt P37231); assay: Cellular PPAR transactivation assay, GAL4-PPARγ chimera in CHO-K1 cells; assay type: cell-based; settings: for Emax: CHO-K1, maximum effect relative to reference compound (Example 73 of EP 1 452 521-A1 = 100%), read-out: PPARγ efficacy; for EC50: CHO-K1 cells, luciferase reporter, 6 h stimulation
T4 construct: PPARγ (amino acids 203-506); expressed in transfected cells
T4 sequence (P37231 203-505 limits assumed): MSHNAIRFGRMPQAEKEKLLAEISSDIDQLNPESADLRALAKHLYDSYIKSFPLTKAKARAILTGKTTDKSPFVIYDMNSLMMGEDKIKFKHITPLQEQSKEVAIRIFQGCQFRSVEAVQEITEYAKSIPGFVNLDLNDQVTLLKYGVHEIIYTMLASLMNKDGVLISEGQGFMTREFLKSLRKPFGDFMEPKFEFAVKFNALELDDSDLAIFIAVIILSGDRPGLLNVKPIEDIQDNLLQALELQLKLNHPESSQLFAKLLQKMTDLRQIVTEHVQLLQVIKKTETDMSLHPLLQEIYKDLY
Excerpt: as §1, §2, §3, §4, §5

GAL4-PPARδ = target: T5, GAL4-PPARδ (Homo sapiens, UniProt Q03181); assay: Cellular PPAR transactivation assay, GAL4-PPARδ chimera in CHO-K1 cells; assay type: cell-based; settings: for Emax: CHO-K1, maximum effect relative to reference compound (Example 73 of EP 1 452 521-A1 = 100%), read-out: PPARδ efficacy; for EC50: CHO-K1 cells, luciferase reporter, 6 h stimulation
T5 construct: PPARδ (amino acids 138-442); expressed in transfected cells
T5 sequence (Q03181 138-441 limits assumed): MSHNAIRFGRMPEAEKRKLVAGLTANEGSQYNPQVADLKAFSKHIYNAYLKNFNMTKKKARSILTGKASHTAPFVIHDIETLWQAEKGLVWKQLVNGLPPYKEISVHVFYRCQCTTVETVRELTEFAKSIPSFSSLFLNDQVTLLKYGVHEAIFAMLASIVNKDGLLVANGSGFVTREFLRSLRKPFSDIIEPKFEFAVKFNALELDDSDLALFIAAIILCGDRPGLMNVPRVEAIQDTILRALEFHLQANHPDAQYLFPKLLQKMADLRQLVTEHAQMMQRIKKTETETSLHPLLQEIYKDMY
Excerpt: as §1, §2, §3, §4, §5

T1 sequence (P19686 whole entry partner): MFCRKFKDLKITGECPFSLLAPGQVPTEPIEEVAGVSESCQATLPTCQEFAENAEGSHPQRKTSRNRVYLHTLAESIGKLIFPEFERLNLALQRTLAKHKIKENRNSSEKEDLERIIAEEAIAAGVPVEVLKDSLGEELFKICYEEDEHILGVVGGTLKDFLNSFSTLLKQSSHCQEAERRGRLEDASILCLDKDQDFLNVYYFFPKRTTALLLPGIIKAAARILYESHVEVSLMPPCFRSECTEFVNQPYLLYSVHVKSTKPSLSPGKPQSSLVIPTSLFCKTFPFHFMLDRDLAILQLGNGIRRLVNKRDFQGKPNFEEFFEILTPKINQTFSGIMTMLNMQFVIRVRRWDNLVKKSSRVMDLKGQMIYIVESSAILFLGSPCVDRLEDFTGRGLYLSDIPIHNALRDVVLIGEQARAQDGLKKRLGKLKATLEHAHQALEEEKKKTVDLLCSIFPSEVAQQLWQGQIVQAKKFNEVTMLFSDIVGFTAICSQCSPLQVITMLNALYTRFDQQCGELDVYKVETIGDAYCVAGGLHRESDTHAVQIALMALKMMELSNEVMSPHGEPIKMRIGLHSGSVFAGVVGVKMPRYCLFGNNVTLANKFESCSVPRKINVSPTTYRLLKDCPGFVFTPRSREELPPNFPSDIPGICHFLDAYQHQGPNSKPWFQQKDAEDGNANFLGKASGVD
T1 sequence (P20595 whole entry): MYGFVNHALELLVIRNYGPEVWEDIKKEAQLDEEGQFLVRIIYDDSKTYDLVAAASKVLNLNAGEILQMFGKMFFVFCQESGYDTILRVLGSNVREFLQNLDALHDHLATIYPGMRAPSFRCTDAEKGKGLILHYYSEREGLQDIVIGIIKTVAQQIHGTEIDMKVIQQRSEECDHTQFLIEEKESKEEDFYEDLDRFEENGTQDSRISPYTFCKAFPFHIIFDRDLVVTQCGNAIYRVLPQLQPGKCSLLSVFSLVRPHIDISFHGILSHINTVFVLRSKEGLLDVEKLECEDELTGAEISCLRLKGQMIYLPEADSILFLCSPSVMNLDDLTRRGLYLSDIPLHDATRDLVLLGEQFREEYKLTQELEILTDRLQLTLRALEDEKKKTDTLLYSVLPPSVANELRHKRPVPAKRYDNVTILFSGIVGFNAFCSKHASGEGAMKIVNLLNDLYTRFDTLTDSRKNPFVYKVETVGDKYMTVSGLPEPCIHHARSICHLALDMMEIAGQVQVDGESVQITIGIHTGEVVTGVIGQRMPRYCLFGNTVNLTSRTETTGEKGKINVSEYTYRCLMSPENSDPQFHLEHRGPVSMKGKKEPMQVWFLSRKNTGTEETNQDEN
T2 sequence (P19686 whole entry partner): as the sequence (P19686 whole entry partner) above
T2 sequence (P20595 whole entry): as the sequence (P20595 whole entry) above

SMILES | MEC (minimum effective concentration), sGC-activating activity in the CHO reporter cell (sGC) [nM] | MEC (minimum effective concentration), activating action at the sGC enzyme [1] [nM] | EC50 [1] [nM] | Emax (GAL4-PPARα) [%] | EC50 (GAL4-PPARα) [nM] | Emax (GAL4-PPARγ) [%] | EC50 (GAL4-PPARγ) [nM] | Emax (GAL4-PPARδ) [%] | EC50 (GAL4-PPARδ) [nM]
O=C(Nc1cc(CC2(C(=O)O)CC2)ccc1F)[C@H](c1ccc(Cl)cc1)C1CCCC1 (single isomer, unassigned) [Example 62] | 1 | 2.2 | 30 | – | – | – | – | – | –
O=C(Nc1cc(CC2(C(=O)O)CC2)ccc1Cl)C(c1ccc(Cl)cc1)C1CCC(F)(F)C1 (single isomer, unassigned) [Example 73, 1-(4-Chloro-3-{[(4-chlorophenyl)(3,3-difluorocyclopentyl)acetyl]amino}benzyl)cyclopropane-carboxylic acid] | 1.7 | 3.8 | 83 | 0 | > 10000 | 0 | > 10000 | 0 | > 10000
CC(C(C(=O)Nc1cc(CC2(C(=O)O)CC2)ccc1Cl)c1ccc(CC(F)(F)F)cc1)C(F)(F)F (single isomer, unassigned) [Example 82, 1-[4-Chloro-3-({4,4,4-trifluoro-3-methyl-2-[4-(2,2,2-trifluoroethyl)phenyl]butanoyl}amino)-benzyl]cyclopropanecarboxylic acid] | 1.7 | 3.4 | 44 | 0 | > 10000 | 20 | 2300 | 0 | > 10000
[2H]C([2H])([2H])OC(c1ccc(Cl)c(NC(=O)[C@H](c2ccc(Cl)cc2)[C@@H](C)C(F)(F)F)c1)C1(C(=O)O)CCC1 (single isomer, unassigned) [Example 105] | 3 | 36 | 240 | 0 | > 10000 | 10 | – | 0 | > 10000
COC(c1ccc(Cl)c(NC(=O)[C@H](c2ccc(Cl)cc2)[C@@H](C)C(F)(F)F)c1)C1(C(=O)O)CCC1 (single isomer, unassigned) [Example 107] | 3 | 22 | 330 | 0 | > 10000 | 10 | 2000 | 0 | > 10000
O=C(Nc1cc(CC2(C(=O)O)CC2)ccc1F)[C@H](c1ccc(Cl)cc1)C1CCCC1(F)F (single isomer, unassigned; (+)) [Example 68] | 1 | 2.6 | 45 | 0 | > 10000 | 0 | > 10000 | 0 | > 10000
COC(c1ccc(Cl)c(NC(=O)[C@H](c2ccc(Cl)cc2)[C@@H](C)C(F)(F)F)c1)C1(C(=O)O)CC1 (single isomer, unassigned; (+)) [Example 89] | 3 | 3.9 | 70 | 0 | > 10000 | 0 | > 10000 | 0 | > 10000
C[C@H]([C@H](C(=O)Nc1cc(CC2(C(=O)O)CC2)ccc1Cl)c1ccc(Cl)cc1F)C(F)(F)F [Example 32, (+)-1-(4-chloro-3-{[(2S,3R)-2-(4-chloro-2-fluoro-phenyl)-4,4,4-trifluoro-3-methylbutanoyl]-amino}benzyl)cyclopropanecarboxylic acid] | 2.3 | 0.9 | 7.3 | 0 | > 10000 | 30 | 1900 | 0 | > 10000
C[C@H]([C@H](C(=O)Nc1cc(CC2(C(=O)O)CC2)ccc1Cl)c1ccc(C(C)(C)C(F)(F)F)cc1)C(F)(F)F [Example 44, 1-[4-chloro-3-({(2S,3R)-4,4,4-trifluoro-3-methyl-2-[4-(1,1,1-trifluoro-2-methylpropan-2-yl)phenyl]-butanoyl}amino)benzyl]cyclopropanecarboxylic acid] | 0.3 | – | – | 0 | > 10000 | 0 | > 10000 | 0 | > 10000
